Laboratory results as given in ChEMBL document CHEMBL5365529, “Construction and Evaluation of Novel Dual-function Antifungal Inhibitors and Covalent Organic Framework Carriers Based on the Infection Microenvironment” (J Med Chem, 2023).
≈ marks a conversion by molar mass, not a printed value. Calls of active or inactive are those of the source. The calls are words filed in the database; no cut-off is given here.

Columns and labels:
Candida albicans [1] = experiment: Antifungal activity against Candida albicans SC5314 assessed as fungal growth inhibition incubated for 72 hrs by CLSI based susceptibility test; format: functional
Candida tropicalis = experiment: Antifungal activity against Candida tropicalis ATCC 1369 assessed as fungal growth inhibition incubated for 72 hrs by CLSI based susceptibility test; format: functional
Aspergillus fumigatus = experiment: Antifungal activity against Aspergillus fumigatus KM8001 assessed as fungal growth inhibition incubated for 72 hrs by CLSI based susceptibility test; format: functional
Nakaseomyces glabratus = experiment: Antifungal activity against Candida glabrata assessed as fungal growth inhibition incubated for 72 hrs by CLSI based susceptibility test; format: functional
Cryptococcus neoformans = experiment: Antifungal activity against Cryptococcus neoformans ZKCC 2209 assessed as fungal growth inhibition incubated for 72 hrs by CLSI based susceptibility test; format: functional
Candida albicans [2] = experiment: Induction of mitochondrial membrane depolarization in Candida albicans SC5314 by JC-1 staining based flow cytometry (reference value: 12.51 %); format: functional
Candida albicans [3] = experiment: Antifungal activity against FLC-resistant Candida albicans CaR assessed as fungal growth inhibition incubated for 72 hrs by CLSI based susceptibility test; format: functional
Candida albicans [4] = experiment: Antifungal activity against FLC-resistant Candida albicans 904 assessed as fungal growth inhibition incubated for 72 hrs by CLSI based susceptibility test; format: functional
[5] = molecular target: T1, Programmed cell death 1 ligand 1 (Homo sapiens, UniProt Q9NZQ7); experiment: Inhibition of human PD-L1 incubated for 15 mins by ELISA method
T1 sequence (Q9NZQ7 whole entry): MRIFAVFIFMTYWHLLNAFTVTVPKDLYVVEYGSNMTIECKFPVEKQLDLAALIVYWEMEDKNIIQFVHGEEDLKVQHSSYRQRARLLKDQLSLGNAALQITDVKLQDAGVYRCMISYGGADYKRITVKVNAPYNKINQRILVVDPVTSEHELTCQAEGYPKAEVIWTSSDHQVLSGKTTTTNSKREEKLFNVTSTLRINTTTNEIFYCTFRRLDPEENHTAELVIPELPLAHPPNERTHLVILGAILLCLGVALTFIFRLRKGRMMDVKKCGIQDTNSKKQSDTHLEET

Candida albicans [6] = experiment: Induction of apoptosis in Candida albicans SC5314 assessed as necrotic cells incubated for 48 hrs by annexin V-FITC/PI staining based flow cytometry (reference value: 2.12 %); format: functional
Candida albicans [7] = experiment: Antifungal activity against FLC-resistant Candida albicans 17# assessed as fungal growth inhibition incubated for 72 hrs by CLSI based susceptibility test; format: functional
[8] = molecular target: T2, Lanosterol 14-alpha demethylase (Candida albicans (strain SC5314 / ATCC MYA-2876) (Yeast), UniProt P10613); experiment: Inhibition of CYP51 in Candida albicans SC5314 using lanosterol as substrate incubated for 60 mins by HPLC analysis
T2 sequence (P10613 whole entry): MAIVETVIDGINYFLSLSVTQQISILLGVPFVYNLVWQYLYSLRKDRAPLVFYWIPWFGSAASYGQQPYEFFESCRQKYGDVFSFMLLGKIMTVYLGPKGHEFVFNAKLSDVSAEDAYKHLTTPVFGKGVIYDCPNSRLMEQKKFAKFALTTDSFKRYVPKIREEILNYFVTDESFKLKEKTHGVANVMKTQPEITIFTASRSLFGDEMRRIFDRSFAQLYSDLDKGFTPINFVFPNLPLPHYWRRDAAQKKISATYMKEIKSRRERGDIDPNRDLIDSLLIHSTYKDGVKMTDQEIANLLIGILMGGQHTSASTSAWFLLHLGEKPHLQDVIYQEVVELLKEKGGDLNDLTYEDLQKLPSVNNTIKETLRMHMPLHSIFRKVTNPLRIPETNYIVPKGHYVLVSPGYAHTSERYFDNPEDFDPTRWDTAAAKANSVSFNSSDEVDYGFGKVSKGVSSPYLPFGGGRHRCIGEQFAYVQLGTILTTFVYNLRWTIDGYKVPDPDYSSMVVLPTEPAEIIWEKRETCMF

[9] = molecular target: T1, Programmed cell death 1 ligand 1; experiment: Binding affinity to PD-L1 (unknown origin) immobilized on carboxy chip assessed as dissociation constant by SPR analysis
Candida albicans [10] = experiment: Induction of apoptosis in Candida albicans SC5314 assessed as increase in ROS level at 1 uM/ml incubated for 48 hrs by fluorescence microscopy; format: functional, organism-based
[11] = molecular target: T2, Lanosterol 14-alpha demethylase; experiment: Inhibition of CYP51 in Candida albicans SC5314 assessed as unknown sterol level at 4 ug/ml incubated for 16 hrs by GC-MS analysis (reference value: 5.35 %); parameters: scale not given: the % may be the effect or the level left; settings: at 4 µg/mL
Candida albicans [12] = experiment: Antifungal activity against FLC-resistant Candida albicans 901 assessed as fungal growth inhibition incubated for 72 hrs by CLSI based susceptibility test; format: functional
Candida albicans [13] = experiment: Induction of apoptosis in Candida albicans SC5314 assessed as apoptotic cells incubated for 48 hrs by annexin V-FITC/PI staining based flow cytometry (reference value: 2.12 %); format: functional
[14] = molecular target: T2, Lanosterol 14-alpha demethylase; experiment: Inhibition of CYP51 in Candida albicans SC5314 assessed as ergosterol level at 4 ug/ml incubated for 16 hrs by GC-MS analysis (reference value: 92.07 %); parameters: scale not given: the % may be the effect or the level left; settings: at 4 µg/mL
Candida albicans [15] = experiment: Antifungal activity against FLC-resistant Candida albicans 632 assessed as fungal growth inhibition incubated for 72 hrs by CLSI based susceptibility test; format: functional
[16] = molecular target: T2, Lanosterol 14-alpha demethylase; experiment: Inhibition of CYP51 in Candida albicans SC5314 assessed as lanosterol level at 4 ug/ml incubated for 16 hrs by GC-MS analysis relative to control; parameters: scale not given: the % may be the effect or the level left; settings: at 4 µg/mL

| SMILES | MIC50 (Candida albicans [1]) [µg/mL] | MIC50 (Candida tropicalis) [µg/mL] | MIC50 (Aspergillus fumigatus) [µg/mL] | MIC50 (Nakaseomyces glabratus) [µg/mL] | MIC50 (Cryptococcus neoformans) [µg/mL] | further results |
| --- | --- | --- | --- | --- | --- | --- |
| Cc1c(COc2cccc(CN[C@H](Cn3ccnc3)C(=O)OC(C)C)c2)cccc1-c1ccccc1 | 0.25 (≈ 0.517 µM) | 0.5 (≈ 1.03 µM) | 4 (≈ 8.27 µM) | 0.5 (≈ 1.03 µM) | 2 (≈ 4.14 µM) |  |
| COC(=O)[C@@H](Cn1ccnc1)NC(=O)C1CCCN(Cc2cccc(-c3ccccc3)c2C)C1 (stereo not given in full) | 0.5 (≈ 1.09 µM) | 1 (≈ 2.17 µM) | 4 (≈ 8.68 µM) | 2 (≈ 4.34 µM) | 0.5 (≈ 1.09 µM) |  |
| COC(=O)[C@@H](Cn1ccnc1)NC(=O)C1CCCN(C(=O)c2cccc(-c3ccccc3)c2)C1 (stereo not given in full) | 1 (≈ 2.17 µM) | 2 (≈ 4.34 µM) | > 8 | 0.5 (≈ 1.09 µM) | 4 (≈ 8.69 µM) |  |
| CCOC(=O)[C@@H](Cn1ccnc1)NC(=O)C1CCCN(C(=O)c2cccc(-c3ccccc3)c2)C1 (stereo not given in full) | 0.5 (≈ 1.05 µM) | 0.5 (≈ 1.05 µM) | 4 (≈ 8.43 µM) | 1 (≈ 2.11 µM) | 1 (≈ 2.11 µM) |  |
| CCOC(=O)[C@@H](Cn1ccnc1)NCc1cccc(OCc2cccc(-c3ccccc3)c2C)c1 | 0.5 (≈ 1.06 µM) | 0.5 (≈ 1.06 µM) | 4 (≈ 8.52 µM) | 1 (≈ 2.13 µM) | 1 (≈ 2.13 µM) |  |
| Cc1c(CN2CCCC(C(=O)N[C@H](Cn3ccnc3)C(=O)OC(C)C)C2)cccc1-c1ccccc1 (stereo not given in full) | 0.5 (≈ 1.02 µM) | 1 (≈ 2.05 µM) | > 8 | 0.5 (≈ 1.02 µM) | 1 (≈ 2.05 µM) |  |
| COC(=O)[C@@H](Cn1cncn1)NC(=O)C1CCCN(C(=O)c2cccc(-c3ccccc3)c2)C1 (stereo not given in full) | 0.5 (≈ 1.08 µM) | 1 (≈ 2.17 µM) | 8 (≈ 17.3 µM) | 0.5 (≈ 1.08 µM) | 1 (≈ 2.17 µM) |  |
| COC(=O)[C@@H](Cn1cncn1)NC(=O)C1CCCN(Cc2cccc(-c3ccccc3)c2C)C1 (stereo not given in full) | 0.5 (≈ 1.08 µM) | 1 (≈ 2.17 µM) | 4 (≈ 8.67 µM) | 2 (≈ 4.33 µM) | 2 (≈ 4.33 µM) |  |
| CC(C)OC(=O)[C@@H](Cn1ccnc1)NC(=O)C1CCCN(C(=O)c2cccc(-c3ccccc3)c2)C1 (stereo not given in full) | 0.25 (≈ 0.512 µM) | 0.5 (≈ 1.02 µM) | 2 (≈ 4.09 µM) | 0.25 (≈ 0.512 µM) | 0.5 (≈ 1.02 µM) | Activity (Candida albicans [2]): 34.74%; MIC50 (Candida albicans [3]): 2 µg/mL (≈ 4.09 µM); MIC50 (Candida albicans [4]): ≥ 8 µg/mL; IC50 [5]: 63 nM; Activity (Candida albicans [6]): 25.91%; MIC50 (Candida albicans [7]): ≥ 8 µg/mL; IC50 [8]: 410 nM; Kd [9]: 15 nM; Activity (Candida albicans [10]): Active; Activity [11]: 4.96%; MIC50 (Candida albicans [12]): 4 µg/mL (≈ 8.19 µM); Activity (Candida albicans [13]): 25.91%; Activity [14]: 16.08%; MIC50 (Candida albicans [15]): 4 µg/mL (≈ 8.19 µM); Activity [16]: 12.71% |
| Cc1c(COc2cccc(CN[C@H](Cn3cncn3)C(=O)OC(C)C)c2)cccc1-c1ccccc1 | 2 (≈ 4.13 µM) | 2 (≈ 4.13 µM) | 8 (≈ 16.5 µM) | 0.25 (≈ 0.516 µM) | 2 (≈ 4.13 µM) |  |
| CCOC(=O)[C@@H](Cn1cncn1)NCc1cccc(OCc2cccc(-c3ccccc3)c2C)c1 | 1 (≈ 2.13 µM) | 1 (≈ 2.13 µM) | 4 (≈ 8.5 µM) | 0.25 (≈ 0.531 µM) | 2 (≈ 4.25 µM) |  |
| COC(=O)[C@@H](Cn1ccnc1)NCc1cccc(OCc2cccc(-c3ccccc3)c2C)c1 | 0.5 (≈ 1.1 µM) | 2 (≈ 4.39 µM) | > 8 | 1 (≈ 2.2 µM) | 1 (≈ 2.2 µM) |  |
| CCOC(=O)[C@@H](Cn1cncn1)NC(=O)C1CCCN(Cc2cccc(-c3ccccc3)c2C)C1 (stereo not given in full) | 0.25 (≈ 0.526 µM) | 0.5 (≈ 1.05 µM) | > 8 | 0.5 (≈ 1.05 µM) | 2 (≈ 4.21 µM) |  |
| CCOC(=O)[C@@H](Cn1cncn1)NC(=O)C1CCCN(C(=O)c2cccc(-c3ccccc3)c2)C1 (stereo not given in full) | 0.25 (≈ 0.526 µM) | 0.5 (≈ 1.05 µM) | > 8 | 0.5 (≈ 1.05 µM) | 2 (≈ 4.21 µM) |  |
| CC(C)OC(=O)[C@@H](Cn1cncn1)NC(=O)C1CCCN(C(=O)c2cccc(-c3ccccc3)c2)C1 (stereo not given in full) | 0.5 (≈ 1.02 µM) | 1 (≈ 2.04 µM) | 4 (≈ 8.17 µM) | 1 (≈ 2.04 µM) | 2 (≈ 4.09 µM) |  |
| Cc1c(CN2CCCC(C(=O)N[C@H](Cn3cncn3)C(=O)OC(C)C)C2)cccc1-c1ccccc1 (stereo not given in full) | 0.125 (≈ 0.255 µM) | 0.25 (≈ 0.511 µM) | 2 (≈ 4.08 µM) | 0.5 (≈ 1.02 µM) | 1 (≈ 2.04 µM) | Activity (Candida albicans [2]): 34.74%; MIC50 (Candida albicans [3]): 4 µg/mL (≈ 8.17 µM); MIC50 (Candida albicans [4]): 4 µg/mL (≈ 8.17 µM); IC50 [5]: 35 nM; Activity (Candida albicans [6]): 25.91%; MIC50 (Candida albicans [7]): 4 µg/mL (≈ 8.17 µM); IC50 [8]: 320 nM; Kd [9]: 15 nM; Activity (Candida albicans [10]): Active; Activity [11]: 4.19%; MIC50 (Candida albicans [12]): ≥ 8 µg/mL; Activity (Candida albicans [13]): 25.91%; Activity [14]: 14.71%; MIC50 (Candida albicans [15]): 2 µg/mL (≈ 4.08 µM); Activity [16]: 11.25% |
| OC(Cn1cncn1)(Cn1cncn1)c1ccc(F)cc1F [FLUCONAZOLE] | 0.5 (≈ 1.63 µM) | 0.5 (≈ 1.63 µM) | > 8 | 0.25 (≈ 0.816 µM) | 1 (≈ 3.27 µM) | MIC50 (Candida albicans [3]): ≥ 8 µg/mL; MIC50 (Candida albicans [4]): ≥ 8 µg/mL; MIC50 (Candida albicans [7]): ≥ 8 µg/mL; MIC50 (Candida albicans [12]): ≥ 8 µg/mL; MIC50 (Candida albicans [15]): ≥ 8 µg/mL |
| CCOC(=O)[C@@H](Cn1ccnc1)NC(=O)C1CCCN(Cc2cccc(-c3ccccc3)c2C)C1 (stereo not given in full) | 0.25 (≈ 0.527 µM) | 0.25 (≈ 0.527 µM) | > 8 | 0.5 (≈ 1.05 µM) | 1 (≈ 2.11 µM) |  |
